Reference: patent US11117915B2, “Antibacterial aminoglycoside analogs” (Cipla USA, Inc., priority 2007, dated 2021)
Values after ≈ are worked out from the molar mass of the structure shown. Where two headings read alike, the source gives them in different places.

What was measured:
[1] = tested on: E. coli ATCC 25922; test: MIC assay, CLSI broth microdilution, E. coli ATCC 25922 (AECO001); format: cell-based; settings: for MIC: Escherichia coli, read-out: MIC AECO001
Protocol: (§1) Minimum inhibitory concentrations (MIC) were determined by reference Clinical and Laboratory Standards Institute (CLSI) broth microdilution methods per M7-A7 [2006]. Quality control ranges utilizing E. coli ATCC 25922, P. aeruginosa ATCC 27853 and S. aureus ATCC 29213, and interpretive criteria for comparator agents were as published in CLSI M100-S17 [2007]. Briefly, serial two-fold dilutions of the test compounds were prepared at 2× concentration in Mueller Hinton Broth. The compound dilutions were mixed in 96-well assay plates in a 1:1 ratio with bacterial inoculum. The inoculum was prepared by suspension of a colony from an agar plate that was prepared the previous day. Bacteria were suspended in sterile saline and added to each assay plate to obtain a final concentration of 5×10^5 CFU/mL. The plates were incubated at 35° C. for 20 hours in ambient air.
These MIC assays were conducted following the same protocol as set forth in Example 110. As shown, substituted sisomicin derivatives with groups other than methyl at the 6′-position have improved activity against strains expressing the AAC6′-modifying enzymes.

[2] = tested on: P. aeruginosa ATCC 27853; test: MIC assay, CLSI broth microdilution, P. aeruginosa ATCC 27853 (APAE001); format: cell-based; settings: for MIC: Pseudomonas aeruginosa, read-out: MIC APAE001
Protocol: as §1

[3] = AECO001 is ATCC25922, 35° C., 20 hours
[4] = APAE001 is ATCC27853, 35° C., 20 hours

SMILES | MIC ([1]; ATCC25922, 20 h) [µg/mL] | MIC ([2]; ATCC27853, 20 h) [µg/mL] | other results
CN[C@@H]1[C@@H](O)[C@@H](O[C@@H]2[C@@H](O)[C@H](O[C@H]3OC(CNCC(C)(C)CN)=CC[C@H]3N)[C@@H](N)C[C@H]2NC(=O)[C@@H](O)CN)OC[C@]1(C)O [Example 51, 6′-(2,2-Dimethyl-3-amino-propyl)-1-(3-amino-2(S)-hydroxy-propionyl)-sisomicin] | – | – | MIC AECO001 [1, 3]: A (MIC's of 1.0 μg/mL or less = A); MIC APAE001 [2, 4]: C (MIC's of greater than 16.0 μg/mL = C)
CN[C@@H]1[C@@H](O)[C@@H](O[C@@H]2[C@@H](O)[C@H](O[C@H]3OC(CNCCC(N)C4CC4)=CC[C@H]3N)[C@@H](N)C[C@H]2NC(=O)[C@@H](O)CN)OC[C@]1(C)O (stereo partly drawn) [Example 52, 6′-(3-Amino-3-cyclopropyl-propyl)-1-(3-amino-2(S)-hydroxy-propionyl)-sisomicin] | – | – | MIC AECO001 [1, 3]: A (MIC's of 1.0 μg/mL or less = A); MIC APAE001 [2, 4]: B (MIC's of greater than 1.0 μg/mL to 16.0 μg/mL = B)
CN[C@@H]1[C@@H](O)[C@@H](O[C@@H]2[C@@H](O)[C@H](O[C@H]3OC(CNC[C@H]4C[C@H](O)CN4)=CC[C@H]3N)[C@@H](N)C[C@H]2NC(=O)[C@@H](O)CN)CC[C@]1(C)O [Example 53, 6′-(Methyl-4(S)-hydroxy-pyrrolidin-2(R)-yl)-1-(3-amino-2(S)-hydroxy-propionyl)-sisomicin] | 1 to 16 (≈ 1.58 to 25.3 µM) | > 16 | –
CN[C@@H]1[C@@H](O)[C@@H](O[C@@H]2[C@@H](O)[C@H](O[C@H]3OC(CNCCCO)=CC[C@H]3N)[C@@H](N)C[C@H]2NC(=O)[C@@H](O)CN)OC[C@]1(C)O [Example 54, 6′-(3-Propanol)-1-(3-amino-2(S)-hydroxy-propionyl)-sisomicin] | < 1 | 1 to 16 (≈ 1.69 to 27 µM) | –
CN[C@@H]1[C@@H](O)[C@@H](O[C@@H]2[C@@H](O)[C@H](O[C@H]3OC(CNCC(C)(C)N)=CC[C@H]3N)[C@@H](N)C[C@H]2NC(=O)[C@@H](O)CN)OC[C@]1(C)O [Example 55, 6′-(2-Methyl-2-amino-propyl)-1-(3-amino-2(S)-hydroxy-propionyl)-sisomicin] | 1 to 16 (≈ 1.65 to 26.4 µM) | > 16 | –
CN[C@@H]1[C@@H](O)[C@@H](O[C@@H]2[C@@H](O)[C@H](O[C@H]3OC(CNCC4(N)CCC4)=CC[C@H]3N)[C@@H](N)C[C@H]2NC(=O)[C@@H](O)CN)OC[C@]1(C)O [Example 56, 6′-(Methyl-1-amino-cyclobutyl)-1-(3-amino-2(S)-hydroxy-propionyl)-sisomicin] | < 1 | > 16 | –
CN[C@@H]1[C@@H](O)[C@@H](O[C@@H]2[C@@H](O)[C@H](O[C@H]3OC(CNC[C@H]4C[C@H](N)C4)=CC[C@H]3N)[C@@H](N)C[C@H]2NC(=O)[C@@H](O)CN)OC[C@]1(C)O [Example 59, 6′-(Methyl-trans-3-amino-cyclobutyl)-1-(3-amino-2(S)-hydroxy-propionyl)-sisomicin] | < 1 | 1 to 16 (≈ 1.62 to 25.9 µM) | –
CN[C@@H]1[C@@H](O)[C@@H](O[C@@H]2[C@@H](O)[C@H](O[C@H]3OC(CNC[C@H]4C[C@H](N)C4)=CC[C@H]3N)[C@@H](N)C[C@H]2NC(=O)C2(O)CC(N)C2)OC[C@]1(C)O (some centres unmarked) [Example 60] | < 1 | 1 to 16 (≈ 1.55 to 24.9 µM) | –
CNCC1=CC[C@@H](N)[C@@H](O[C@H]2[C@H](O)[C@@H](O[C@H]3OC[C@](C)(O)[C@H](NC)[C@H]3O)[C@H](NC(=O)C3(O)CNC3)C[C@@H]2N)O1 [Example 61] | – | – | MIC [1, 3]: < 1 µg/mL; MIC AECO001 ([1]; Table 3, E. coli ATCC25922): 1 µg/mL (≈ 1.78 µM); MIC [2, 4]: 1 to 16 µg/mL (≈ 1.78 to 28.5 µM)
CN[C@@H]1[C@@H](O)[C@@H](O[C@@H]2[C@@H](O)[C@H](O[C@H]3OC(CNCCO)=CC[C@H]3N)[C@@H](N)C[C@H]2NC(=O)C2(O)CC(N)C2)OC[C@]1(C)O (some centres unmarked) [Example 62] | < 1 | 1 to 16 (≈ 1.65 to 26.5 µM) | –
CN[C@@H]1[C@@H](O)[C@@H](O[C@@H]2[C@@H](O)[C@H](O[C@H]3OC(CNC[C@H]4C[C@H](N)C4)=CC[C@H]3N)[C@@H](N)C[C@H]2NC(=O)C2(O)CNC2)OC[C@]1(C)O [Example 63] | < 1 | 1 to 16 (≈ 1.59 to 25.4 µM) | –
CN[C@@H]1[C@@H](O)[C@@H](O[C@@H]2[C@@H](O)[C@H](O[C@H]3OC(CNC[C@@H]4C[C@H](N)CN4)=CC[C@H]3N)[C@@H](N)C[C@H]2NC(=O)[C@@H](O)CN)OC[C@]1(C)O [Example 65, 6′-(Methyl-4(S)-amino-pyrrolidin-2(S)-yl)-1-(3-amino-2(S)-hydroxy-propionyl)-sisomicin] | 1 to 16 (≈ 1.58 to 25.3 µM) | 1 to 16 (≈ 1.58 to 25.3 µM) | –
CN[C@@H]1[C@@H](O)[C@@H](O[C@@H]2[C@@H](O)[C@H](O[C@H]3OC(CNCC4(CN)CC4)=CC[C@H]3N)[C@@H](N)C[C@H]2NC(=O)[C@@H](O)CN)OC[C@]1(C)O [Example 66, 6′-(Methyl-1-aminomethyl-cyclopropyl)-1-(3-amino-2(S)-hydroxy-propionyl)-sisomicin] | < 1 | 1 to 16 (≈ 1.62 to 25.9 µM) | –
CN[C@@H]1[C@@H](O)[C@@H](O[C@@H]2[C@@H](O)[C@H](O[C@H]3OC(CNCC4(N)CC4)=CC[C@H]3N)[C@@H](N)C[C@H]2NC(=O)[C@@H](O)CN)OC[C@]1(C)O [Example 67, 6′-(Methyl-1-Amino-cyclopropyl)-1-(3-amino-2(S)-hydroxy-propionyl)-sisomicin] | 1 to 16 (≈ 1.66 to 26.5 µM) | 1 to 16 (≈ 1.66 to 26.5 µM) | –
CN[C@@H]1[C@@H](O)[C@@H](O[C@@H]2[C@@H](O)[C@H](O[C@H]3OC(CNCC(O)CCN)=CC[C@H]3N)[C@@H](N)C[C@H]2NC(=O)[C@@H](O)CN)OC[C@]1(C)O (stereo partly drawn) [Example 68, 6′-(2-Hydroxy-4-amino-butyl)-1-(3-amino-2(S)-hydroxy-propionyl)-sisomicin] | 1 to 16 (≈ 1.61 to 25.7 µM) | 1 to 16 (≈ 1.61 to 25.7 µM) | –
CN[C@@H]1[C@@H](O)[C@@H](O[C@@H]2[C@@H](O)[C@H](O[C@H]3OC(CNC[C@H]4C[C@@H](N)[C@@H](O)C4)=CC[C@H]3N)[C@@H](N)C[C@H]2NC(=O)[C@@H](O)CN)OC[C@]1(C)O [Example 69, 6′-(Methyl-1(R)-amino-2(S)-hydroxy-cyclopent-4(S)-yl)-1-(3-amino-2(S)-hydroxy-propionyl)-sisomicin] | < 1 | 1 to 16 (≈ 1.54 to 24.7 µM) | –
CN[C@@H]1[C@@H](O)[C@@H](O[C@@H]2[C@@H](O)[C@H](O[C@H]3OC(CNCCC4(O)CNC4)=CC[C@H]3N)[C@@H](N)C[C@H]2NC(=O)[C@@H](O)CN)OC[C@]1(C)O [Example 70, 6′-(Ethyl-2-(3-hydroxy-azetidin-3-yl))-1-(3-amino-2(S)-hydroxy-propionyl)-sisomicin] | 1 to 16 (≈ 1.58 to 25.2 µM) | > 16 | –
CN[C@@H]1[C@@H](O)[C@@H](O[C@@H]2[C@@H](O)[C@H](O[C@H]3OC(CNCC4CC4)=CC[C@H]3N)[C@@H](N)C[C@H]2NC(=O)C(O)C2CNC2)OC[C@]1(C)O (some centres unmarked) [Example 71, 6′-Methylcyclopropyl-1-(2-(azetidin-3-yl)-2-hydroxy-acetyl)-sisomicin] | 1 to 16 (≈ 1.63 to 26 µM) | > 16 | –
CN[C@@H]1[C@@H](O)[C@@H](O[C@@H]2[C@@H](O)[C@H](O[C@H]3OC(CNC[C@H]4C[C@H](N)C4)=CC[C@H]3N)[C@@H](N)C[C@H]2NC(=O)C(O)C2CNC2)OC[C@]1(C)O (stereo partly drawn) [Example 72, 6′-(Methyl-trans-3-amino-cyclobutyl)-1-(2-(azetidin-3-yl)-2-hydroxy-acetyl)-sisomicin] | 1 to 16 (≈ 1.55 to 24.9 µM) | 1 to 16 (≈ 1.55 to 24.9 µM) | –
CN[C@@H]1[C@@H](O)[C@@H](O[C@@H]2[C@@H](O)[C@H](O[C@H]3OC(CNCC4CNC4)=CC[C@H]3N)[C@@H](N)C[C@H]2NC(=O)[C@@H](O)CN)OC[C@]1(C)O [Example 73, 6′-(Methyl-azetidin-3-yl)-1-(3-amino-2(S)-hydroxy-propionyl)-sisomicin] | 1 to 16 (≈ 1.66 to 26.5 µM) | 1 to 16 (≈ 1.66 to 26.5 µM) | –
